ChEMBL document CHEMBL1134041, “Imide and lactam derivatives of N-benzylpyroglutamyl-L-phenylalanine as VCAM/VLA-4 antagonists” (Bioorg Med Chem Lett, 2001)

Tests used:
Integrin alpha-4/beta-1 [1] = molecular target: T1, Integrin alpha-4/beta-1 (Homo sapiens, UniProt P05556+P13612); test: Inhibition of human VCAM binding to VLA-4 of Ramos cells in ELISA; type: cell-based
Integrin alpha-4/beta-1 [2] = molecular target: T1, Integrin alpha-4/beta-1; test: Inhibition of human VCAM and Ramos cell VLA-4 interaction; type: cell-based

T1 sequence (P05556 whole entry): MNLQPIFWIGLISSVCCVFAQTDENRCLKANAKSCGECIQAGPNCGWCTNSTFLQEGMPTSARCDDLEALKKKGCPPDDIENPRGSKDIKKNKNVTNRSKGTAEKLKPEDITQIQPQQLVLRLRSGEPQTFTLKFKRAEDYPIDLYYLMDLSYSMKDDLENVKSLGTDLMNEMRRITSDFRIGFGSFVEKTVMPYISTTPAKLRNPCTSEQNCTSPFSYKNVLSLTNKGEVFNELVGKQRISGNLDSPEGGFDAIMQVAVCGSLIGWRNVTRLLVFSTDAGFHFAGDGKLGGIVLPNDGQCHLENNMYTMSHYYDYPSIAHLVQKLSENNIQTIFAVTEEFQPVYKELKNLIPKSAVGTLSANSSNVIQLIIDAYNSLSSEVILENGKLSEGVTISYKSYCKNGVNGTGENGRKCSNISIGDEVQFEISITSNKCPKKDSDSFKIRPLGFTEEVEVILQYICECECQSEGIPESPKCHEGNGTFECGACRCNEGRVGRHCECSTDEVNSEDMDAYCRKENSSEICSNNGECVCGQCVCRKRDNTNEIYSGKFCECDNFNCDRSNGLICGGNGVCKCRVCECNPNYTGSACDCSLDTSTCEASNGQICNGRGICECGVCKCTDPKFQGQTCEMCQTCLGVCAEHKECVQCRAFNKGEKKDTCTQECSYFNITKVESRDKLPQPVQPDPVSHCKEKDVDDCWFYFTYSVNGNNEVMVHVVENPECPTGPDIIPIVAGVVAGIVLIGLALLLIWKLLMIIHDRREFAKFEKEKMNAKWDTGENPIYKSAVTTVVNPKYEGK
T1 sequence (P13612 whole entry): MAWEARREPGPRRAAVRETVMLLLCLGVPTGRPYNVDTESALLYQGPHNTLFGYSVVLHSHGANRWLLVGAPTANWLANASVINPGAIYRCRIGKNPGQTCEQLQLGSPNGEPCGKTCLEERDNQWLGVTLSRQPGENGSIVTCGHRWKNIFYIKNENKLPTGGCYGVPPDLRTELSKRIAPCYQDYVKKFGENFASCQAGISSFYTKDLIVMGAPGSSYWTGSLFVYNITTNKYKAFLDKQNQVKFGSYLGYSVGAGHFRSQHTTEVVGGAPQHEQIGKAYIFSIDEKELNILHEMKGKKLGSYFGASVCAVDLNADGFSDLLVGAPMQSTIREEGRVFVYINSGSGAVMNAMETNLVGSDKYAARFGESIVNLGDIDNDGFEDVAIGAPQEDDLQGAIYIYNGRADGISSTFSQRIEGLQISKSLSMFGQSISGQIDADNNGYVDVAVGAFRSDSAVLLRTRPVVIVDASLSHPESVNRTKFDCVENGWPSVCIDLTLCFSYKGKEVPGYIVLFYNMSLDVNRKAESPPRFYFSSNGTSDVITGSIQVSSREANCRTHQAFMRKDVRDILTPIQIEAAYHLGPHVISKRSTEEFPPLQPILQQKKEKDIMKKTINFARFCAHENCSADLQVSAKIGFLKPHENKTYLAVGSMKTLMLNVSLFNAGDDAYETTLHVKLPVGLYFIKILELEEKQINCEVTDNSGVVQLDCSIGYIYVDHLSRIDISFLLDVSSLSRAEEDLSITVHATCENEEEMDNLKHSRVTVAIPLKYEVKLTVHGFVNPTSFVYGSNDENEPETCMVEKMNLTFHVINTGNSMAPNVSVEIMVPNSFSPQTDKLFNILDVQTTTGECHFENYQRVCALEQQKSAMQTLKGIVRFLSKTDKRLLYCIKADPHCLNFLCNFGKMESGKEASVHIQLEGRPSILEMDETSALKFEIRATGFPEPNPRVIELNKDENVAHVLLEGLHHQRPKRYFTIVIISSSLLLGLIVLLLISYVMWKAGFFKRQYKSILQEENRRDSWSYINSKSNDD

Structure (SMILES) | IC50 (Integrin alpha-4/beta-1 [1]) [nM] | IC50 (Integrin alpha-4/beta-1 [2]) [nM]
O=C(Nc1ccc(C[C@H](NC(=O)[C@@H]2CCC(=O)N2Cc2ccccc2)C(=O)O)cc1)c1c(Cl)cccc1Cl | 0.37 | 12
O=C(O)[C@H](Cc1ccc(N2C(=O)CC(c3ccccc3)C2=O)cc1)NC(=O)[C@@H]1CCC(=O)N1Cc1ccccc1 (stereo not given in full) | 1.7 | 92
O=C(O)[C@H](Cc1ccc(N2C(=O)CCC(c3ccccc3)C2=O)cc1)NC(=O)[C@@H]1CCC(=O)N1Cc1ccccc1 (stereo not given in full) | 0.99 | 184
O=C(O)[C@H](Cc1ccc(N2C(=O)Cc3ccccc3C2=O)cc1)NC(=O)[C@@H]1CCC(=O)N1Cc1ccccc1 | 0.98 | 107
O=C(O)[C@H](Cc1ccc(N2C(=O)c3ccccc3C2=O)cc1)NC(=O)[C@@H]1CCC(=O)N1Cc1ccccc1 | 0.52 | 20
O=C(O)[C@H](Cc1ccc(N2C(=O)CC(c3ccc(O)cc3)C2=O)cc1)NC(=O)[C@@H]1CCC(=O)N1Cc1ccccc1 (stereo not given in full) | 2.6 | 420
O=C(O)[C@H](Cc1ccc(N2C(=O)CC3(CCCC3)CC2=O)cc1)NC(=O)[C@@H]1CCC(=O)N1Cc1ccccc1 | 0.54 | 57

The next lines start with the values.

IC50 (Integrin alpha-4/beta-1 [1]) [nM] | IC50 (Integrin alpha-4/beta-1 [2]) [nM] | Structure (SMILES)
16 |  | O=C(O)[C@H](Cc1ccc(N2CCCC2=O)cc1)NC(=O)[C@@H]1CCC(=O)N1Cc1ccccc1
0.94 | 123 | O=C(O)[C@H](Cc1ccc(N2C(=O)CC(Cc3ccccc3)C2=O)cc1)NC(=O)[C@@H]1CCC(=O)N1Cc1ccccc1 (stereo not given in full)
0.76 | 41 | CC(C)CC1CC(=O)N(c2ccc(C[C@H](NC(=O)[C@@H]3CCC(=O)N3Cc3ccccc3)C(=O)O)cc2)C1=O (stereo not given in full)
4.3 | 650 | O=C(O)[C@H](Cc1ccc(N2C(=O)c3ccncc3C2=O)cc1)NC(=O)[C@@H]1CCC(=O)N1Cc1ccccc1
3.2 | 286 | O=C(O)[C@H](Cc1ccc(N2C(=O)CCC2=O)cc1)NC(=O)[C@@H]1CCC(=O)N1Cc1ccccc1
2.7 | 500 | O=C(O)[C@H](Cc1ccc(N2Cc3ccccc3C2=O)cc1)NC(=O)[C@@H]1CCC(=O)N1Cc1ccccc1
